Experiments:
[1] = test system: Mouse Skin Phosphodiesterase; assay: Mouse skin phosphodiesterase (PDE) inhibition test; type: biochemical, Hairless mice; design: key: Active: A compound is considered active if it inhibits more than theophylline, that is, to 50% of control at 1 mM concentration of compound, or to 80% of control of 0.05 mM concentration of compound; conditions: 10 ug./ml. final concentration; 30° C. for 15 minutes
[2] = test system: Monkey Lung Cyclic AMP Phosphodiesterase; assay: Monkey lung phosphodiesterase inhibition test; type: biochemical, African green monkeys; conditions: usually 1 mM or 0.1 mM; pH 7.4, 25° C. for 20 minutes
Protocol: Lung parenchyma of African green monkeys is homogenized in a Waring blender and centrifuged at 40,000×gravity for 20 minutes. The supernatant is brought to 70% saturation of ammonium sulfate, centrifuged and the pellet redissolved and dialysed, before aliquoting and storage at --20° C.
Phosphodiesterase is assayed by the method of Thompson and Appleman, ibid. An assay tube contains a 0.4 ml. solution of the following: 45 mM tris-HCl buffer, pH 7.4, […], 0.1 mM dithioerythritol, 10^-6 M cyclic AMP, 0.1 uCi [^3 H]-cyclic AMP, and test compound at the desired concentration (usually 1 mM or 0.1 mM). Compounds not readily soluble in water are dissolved at 40 times the desired concentration in methanol, and diluted 20 times with water. If the compound is not dissolved at this time, it is suspended by sonication before being diluted 1:2 into the assay tube. In this case the activity of the enzyme in the presence of the compound is compared to a solvent control (2.5% methanol), although the solvent alone has negligible effect. The reaction is initiated by addition of enzyme and proceeds at 25° C. for 20 minutes. It is terminated by incubation at 100° C. for 2 minutes. The tubes are cooled to 25° C., 0.8 ug of 5'-nucleotidase (Crotolu adamantus toxin) is added to each and the tubes incubated at 25° C. for 30 minutes. A 1 milliliter suspension of Bio-Rad Labs. AGIX8 (about 0.5 ml. of settled resin) is added, the tubes centrifuged at 900×gravity for 10 minutes and an aliquot of supernatant removed for scintillation counting. The inhibition by the test compound is calculated as: [formula] where `compound` is the cpm in the presence of compound, `control` is the cpm in the absence of compound, and `blank` is the cpm in the absence of enzyme. […] For this reason, control tubes which contained [^3 H]-AMP instead of [^3 H]-cyclic AMP are run in parallel. A correction of the apparent phosphodiesterase activity is made for the rare compound which inhibited the hydrolysis of AMP.

[3] = Dispersion of aerosol suspension on warming after storage; type: physicochemical; conditions: aerosol suspension in dichlorodifluoromethane with sorbitan trioleate, sonified
Protocol: The active ingredient and sorbitan trioleate are placed in a beaker and the dichlorodifluoromethane is added at -40° C. whereupon a suspension is formed. The mixture is sonified, that is, treated with a Sonifier, manufactured by the Branson Sonic Power Co. of Danbury, Conn., as model LS-75 at a current input of 9 amperes for 2 minutes. Additional cold dichlorodifluoromethane is added as necessary to keep the volume at 100 ml. The mixture is uniformly dispersed, and has increased stability resulting from the sonification. Each of six 19 ml. stainless steel containers are filled with 15 ml. of the cold mixture, then valves are inserted and sealed in place.

SMILES	Mouse Skin Phosphodiesterase (A) [1]	Monkey lung phosphodiesterase inhibition (B) [2]	dispersion of the aerosol suspension [3]
Cc1nc(C)n2c(=O)[nH]ncc12 [6,8-Dimethyl-imidazo[1,5-d]-as-triazin-4(3H)-one]	Active	Active	–
Cc1nc(C)n2c(=S)[nH]ncc12 [6,8-Dimethyl-imidazo[1,5-d]-as-triazine-4-(3H)-thione]	Active	–	–
Cc1nc(Cc2ccccc2)n2c(=O)[nH]ncc12 [6-Benzyl-8-methyl-imidazo[1,5-d]-as-triazin-4(3H)-one]	Active	–	–
Cc1nc(Cc2ccccc2)n2c(=S)[nH]ncc12 [6-Benzyl-8-methyl-imidazo[1,5-d]-as-triazine-4(3H)-thione]	Active	Active	–
O=c1[nH]ncc2cnc(Cc3ccccc3)n12 [6-Benzyl-imidazo[1,5-d]-as-triazin-4(3H)-one]	Active	–	–
O=c1[nH]ncc2cnc(-c3ccccc3)n12 [6-Phenyl-imidazo[1,5-d]-as-triazin-4(3H)-one]	Active	–	–
CCCc1ncc2cn[nH]c(=O)n12 [6-n-Propyl-imidazo[1,5-d]-as-triazin-4(3H)-one]	Active	–	–
CCCc1ncc2cn[nH]c(=S)n12 [6-n-Propyl-imidazol[1,5-d]-as-triazine-4(3H)-thione]	Active	Active	–
CCCOc1ccccc1-c1ncc2cn[nH]c(=O)n12 [6-o-Propoxyphenyl-imidazo[1,5-d]-as-triazine-4(3H)-one]	Active	–	–
Cc1nc(C(C)(C)C)n2c(=O)[nH]ncc12 [6-tert-Butyl-8-methyl-imidazo[1,5-d]-as-triazin-4(3H)-one]	Active	Active	–
CC(C)(C)c1ncc2cn[nH]c(=O)n12 [6-tert-Butyl-imidazo[1,5-d]-as-triazin-4(3H)-one]	Active	–	–
O=c1[nH]ncc2c(Br)nc(-c3ccccc3)n12 [8-Bromo-6-phenyl-imidazo[1,5-d]-as-triazin-4(3H)-one]	Active	Active	–
O=c1[nH]ncc2c(Cl)nc(-c3ccccc3)n12 [8-Chloro-6-phenyl-imidazo[1,5-d]-as-triazin-4(3H)-one]	Active	Active	–
CCCc1nc(C)c2cn[nH]c(=S)n12 [8-Methyl-6-n-propyl-imidazolo[1,5-d]-as-triazine-4(3H)-thione]	Active	Active	–
Cc1nc(-c2ccccc2)n2c(=O)[nH]ncc12 [8-Methyl-6-phenyl-imidazo[1,5-d]-as-triazin-4(3H)-one]	Active	Active	–
Cc1nc(-c2ccccc2)n2c(=S)[nH]ncc12 [8-Methyl-6-phenyl-imidazo[1,5-d]-as-triazine-4-(3H)-thione]	Active	–	–
Cc1ncn2c(=O)[nH]ncc12 [8-Methyl-imidazo[1,5-d]-as-triazin-4(3H)-one]	Active	–	–
Cc1ncn2c(=S)[nH]ncc12 [8-Methyl-imidazo[1,5-d]-as-triazine-4-(3H)-thione]	Active	–	–
CC(C)c1nc(Cl)c2cn[nH]c(=S)n12 [8-chloro-6-isopropyl-imidazo[1,5-d]-as-triazine-4(3H)-thione]	–	–	remains dispersed

— patent USRE30511E, “Imidazo[1,5-d]-as-triazine-4(3H)-ones and thiones” (American Cyanamid Company, priority 1979, dated 1981)
